Consider three molecules from patent US20070003671A1, “Two-part calcium fortified compositions and methods of making the same” (priority 2005, published 2007).

Type in all cases: physicochemical
Data set [1] can be described thus: pH of a 20% slurry in water. An excerpt:
Titratable acidity and pH can be used as measures of sour perception in, e.g., beverage applications. It is well known that acidity provides a flavor lift or increased perception of flavor in a beverage.

The nature of data set [2]: Calcium salts, physical/chemical attributes in orange juice, 350 mg/100 mL calcium load. Particulars: for Brix/Acid Ratio: unfortified juice 18.3. An excerpt:
(§1) The flavor of orange juice, for example, can be characterized by a unique balance of sweetness resulting from the sugar content and tartness resulting from the acid content. A challenge of fortifying orange juice with nutritionally significant amounts of calcium is maintaining the sweet to tart balance. This balance can be expressed analytically as the Brix to acid ratio, as described above. The Brix component of the ratio is the measure of soluble solids in the composition often determined by a refractometer. The acid component can be determined by titration with a base such as sodium hydroxide. The Brix to acid ratio is an analytical representation or measure of the sweet to tart taste balance.
A variety of calcium salts, i.e., calcium components, were again evaluated to determine their effects on the Brix-acid ratio but this time at 350 mg/100 mL calcium load.

The nature of data set [3]: Calcium salts, physical/chemical attributes in orange juice, 450 mg/100 mL calcium load. Particulars: for Brix/Acid Ratio: unfortified juice 18.3.
From the text: as §1
A variety of calcium salts, i.e., calcium components, were evaluated to determine their effects on the Brix-acid ratio. In this evaluation, orange juices fortified with different calcium salts were prepared at 450 mg/100 mL of calcium load.

Turning to `O=P([O-])([O-])O.[Ca+2]` [dicalcium phosphate anhydrous], in data set [1], the pH of slurry entry is recorded as “approximately 5.0”. For the same molecule, in data set [2], the “Brix (48 hrs)” value is 11.97, the “Calcium in Juice (48 hrs)” value came to 156 mg/100 mL, the “Titratable Acidity (%) (48 hrs)” value turned out to be 0.677% and the “pH (48 hrs)” value is listed as 4.04. Besides, in data set [2], the “Brix/Acid Ratio” value is given as 17.6. Further, in data set [3], the “Brix (48 Hours)” value is reported as 12.04, the “Calcium - Juice (48 Hours)” value worked out at 203 mg/100 mL, the “Titratable Acidity (%) (48 Hours)” value is given as 0.674% and the “pH (48 Hours)” value was 4.04. The “Brix/Acid Ratio” value in data set [3] was 17.8.
In data set [1], `O.O.O=P([O-])([O-])O.[Ca+2]` [dicalcium phosphate dihydrate] showed a pH of slurry of 7.4. Moreover, in data set [2], the “Brix (48 hrs)” value is given as 12.33, the “Calcium in Juice (48 hrs)” value stood at 141 mg/100 mL, the “Titratable Acidity (%) (48 hrs)” value came to 0.667% and the “pH (48 hrs)” value was found to be 4.17. In addition, in data set [2], the “Brix/Acid Ratio” value stood at 18.5. In addition, in data set [3], the “Brix (48 Hours)” value is 12.26, the “Calcium - Juice (48 Hours)” value was 181 mg/100 mL, the “Titratable Acidity (%) (48 Hours)” value is on record as 0.682% and the “pH (48 Hours)” value is given as 4.21. The “Brix/Acid Ratio” value in data set [3] is on record as 18.0.
In the case of calcium gluconate monohydrate, in data set [2], the “Brix (48 hrs)” value was 13.56, the “Calcium in Juice (48 hrs)” value was 154 mg/100 mL, the “Titratable Acidity (%) (48 hrs)” value is 0.640% and the “pH (48 hrs)” value is recorded as 3.99. Also, in data set [2], the “Brix/Acid Ratio” value was 21.2. In data set [3], the “Brix (48 Hours)” value is 13.91, the “Calcium - Juice (48 Hours)” value was 198 mg/100 mL, the “Titratable Acidity (%) (48 Hours)” value was found to be 0.653% and the “pH (48 Hours)” value is 4.00. For the same molecule, in data set [3], the “Brix/Acid Ratio” value came out at 21.3.
